Assay results as given in patent US6894058B1, “Use of 3-hydroxy-3-methylgutaryl coenzym a reductase inhibitors for the manufacture of a medicament for the treatment of diabetic neuropathy” (AstraZeneca AB, priority 1999, dated 2005).

Columns and labels:
[1] = tested on: Diabetic rats; experiment: Sciatic nerve motor conduction velocity in streptozotocin-diabetic rats; type: in vivo, Sprague-Dawley rats; conditions: for Sciatic Nerve Motor Conduction Velocity: group mean ± SEM (number of rats in brackets); for nerve conduction velocity (NCV), effect in words: animal model of diabetic neuropathy
Procedure: Motor nerve conduction velocity was measured (as previously described by Cameron et al, Diabetologia, 1993, Vol. 36, pages 299-304) between sciatic notch and knee in the nerve branch to tibialis anterior muscle, which is representative of the whole sciatic nerve in terms of susceptibility to diabetes and treatment effects.

[2] = tested on: Diabetic rats; experiment: Saphenous nerve sensory conduction velocity in streptozotocin-diabetic rats; type: in vivo, Sprague-Dawley rats; conditions: for Saphenous Nerve Sensory Conduction Velocity: group mean ± SEM (number of rats in brackets)
Procedure: Sensory conduction velocity in saphenous nerve was measured between the groin and ankle (as previously described by Cameron et al. Quarterly Journal of Experimental Physiology, 1989, vol. 74, pages 917-926).

[3] = tested on: Diabetic rats; experiment: Sciatic nerve blood flow by hydrogen clearance microelectrode polarography in streptozotocin-diabetic rats; conditions: for Sciatic Nerve Blood Flow: group mean ± SEM (number of rats in brackets); for nerve blood flow, effect in words: animal model of diabetic neuropathy
[4] = Diabetic + 2 weeks of dosing at 20 mg/kg
[5] = Diabetic + 2 weeks of dosing at 50 mg/kg
[6] = Rattus norvegicus, Dose response, 5 groups of 8 rats, dose ranged from 0.3-20 mg/kg

Structure (SMILES) | Sciatic Nerve Motor Conduction Velocity [1, 4] | Sciatic Nerve Motor Conduction Velocity [1, 5] | nerve conduction velocity (NCV), effect in words [1] | Saphenous Nerve Sensory Conduction Velocity [2, 4] | Saphenous Nerve Sensory Conduction Velocity [2, 5] | Sciatic Nerve Blood Flow [3, 5] | nerve blood flow, effect in words [3] | ED50 [1, 6] [mg/kg] | ED50 [2, 6] [mg/kg] | Sciatic Nerve Blood Flow [3, 4]
CC(C)c1c(C(=O)Nc2ccccc2)c(-c2ccccc2)c(-c2ccc(F)cc2)n1CC[C@@H](O)C[C@@H](O)CC(=O)O [Atorvastatin, atorvastatin] | 61.53 ± 0.76 (6) | 63.59 ± 0.69 (6) | improvement | 59.77 m/s ± 0.93 (6) | 60.72 m/s ± 0.94 (6) | 16.96 ± 1.39 ml/min/100 g (6) | improvement | – | – | –
CC(C)c1nc(N(C)S(C)(=O)=O)nc(-c2ccc(F)cc2)c1/C=C/[C@@H](O)C[C@@H](O)CC(=O)O [The AGENT, (E)-7-[4-(4-fluorophenyl)-6-isopropyl-2-[methyl(methylsulfonyl)amino]pyrimidin-5-yl](3R,5S)-3,5-dihydroxyhept-6-enoic acid] | 63.34 ± 0.61 (8) | – | improvement | 60.57 m/s ± 0.83 (8) | – | – | improvement | 2.3 | 0.9 | 16.19 ± 0.51 ml/min/100 g (8)
